Values joined by “and” are separate entries in the source; they are usually repeats but may differ in a detail not shown here. Equal values may be shown once.
Test system: 996289-038-R-J1-PDC spheroid viability
Test: Anticancer human tumor 996289-038-R-J1-PDC patient-derived colon adenocarcinoma cell line growth inhibition [PI3K]
Conditions: spheroids with HUVEC and MSC; for viability, T/C: stronger effect = lower value
Summary of the method: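 Tumor cells were combined with HUVEC and MSCs into spheroids, then dosed with PI3K-inhibitor combinations over half-log ranges capped near clinical Cmax or 10 microM.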

[1] = curve of first compound, second compound 0.00316 µM
[2] = curve of first compound, second compound 0.01 µM
[3] = curve of first compound, second compound 0.0316 µM
[4] = curve of first compound, second compound 0.1 µM
[5] = curve of first compound, second compound 0.316 µM
[6] = curve of first compound, second compound 1 µM
[7] = second compound 0.00316 µM, first compound 0.0316 µM
[8] = second compound 0.00316 µM, first compound 0.1 µM
[9] = second compound 0.00316 µM, first compound 0.316 µM
[10] = second compound 0.00316 µM, first compound 1 µM
[11] = second compound 0.00316 µM, first compound 3.16 µM
[12] = second compound 0.00316 µM, first compound 10 µM
[13] = second compound 0.01 µM, first compound 0.0316 µM
[14] = second compound 0.01 µM, first compound 0.1 µM
[15] = second compound 0.01 µM, first compound 0.316 µM
[16] = second compound 0.01 µM, first compound 1 µM
[17] = second compound 0.01 µM, first compound 3.16 µM
[18] = second compound 0.01 µM, first compound 10 µM
[19] = second compound 0.0316 µM, first compound 0.0316 µM
[20] = second compound 0.0316 µM, first compound 0.1 µM
[21] = second compound 0.0316 µM, first compound 0.316 µM
[22] = second compound 0.0316 µM, first compound 1 µM
[23] = second compound 0.0316 µM, first compound 3.16 µM
[24] = second compound 0.0316 µM, first compound 10 µM
[25] = second compound 0.1 µM, first compound 0.0316 µM
[26] = second compound 0.1 µM, first compound 0.1 µM
[27] = second compound 0.1 µM, first compound 0.316 µM
[28] = second compound 0.1 µM, first compound 1 µM
[29] = second compound 0.1 µM, first compound 3.16 µM
[30] = second compound 0.1 µM, first compound 10 µM
[31] = second compound 0.316 µM, first compound 0.0316 µM
[32] = second compound 0.316 µM, first compound 0.1 µM
[33] = second compound 0.316 µM, first compound 0.316 µM
[34] = second compound 0.316 µM, first compound 1 µM
[35] = second compound 0.316 µM, first compound 3.16 µM
[36] = second compound 0.316 µM, first compound 10 µM
[37] = second compound 1 µM, first compound 0.0316 µM
[38] = second compound 1 µM, first compound 0.1 µM
[39] = second compound 1 µM, first compound 0.316 µM
[40] = second compound 1 µM, first compound 1 µM
[41] = second compound 1 µM, first compound 3.16 µM
[42] = second compound 1 µM, first compound 10 µM
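Further: spheroids exposed to compounds for seven days before viability read.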
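Wherever viability, T/C is given: luminescence used as a proxy for viable cell amount; percent viability relative to DMSO vehicle control as 100%.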

`CC1(C)CCC(Nc2ncc(C(F)(F)F)c(-c3c[nH]c4c(P(C)(C)=O)c(C#N)ccc34)n2)CN1` (configuration not stated) + COc1c(OCCCN2CCOCC2)ccc2c3n(c(=NC(=O)c4cnc(N)nc4)nc12)CCN3 showed an IC50 [1] of 5.54 µM, an IC50 [2] of 5.12 µM and an IC50 [3] of 4.48 µM. The IC50 [4] was 3.46 µM, the IC50 [5] was less than 0.0316 µM and the IC50 [6] was less than 0.0316 µM. For the same compound, the viability, T/C [7] was 106%, the viability, T/C [8] was 74.7% and the viability, T/C [9] was 80%. The viability, T/C [10] was 68.6%, the viability, T/C [11] was 86.3% and the viability, T/C [12] was 15%. It also gave a viability, T/C [13] of 91.2%, a viability, T/C [14] of 78.9% and a viability, T/C [15] of 75.2%. For the same compound, the viability, T/C [16] was 75.8%, the viability, T/C [17] was 76.4% and the viability, T/C [18] was 13.6%. For the same compound, the viability, T/C [19] was 71.8%, the viability, T/C [20] was 65.2% and the viability, T/C [21] was 63.7%. For the same compound, the viability, T/C [22] was 64.6%, the viability, T/C [23] was 66% and the viability, T/C [24] was 13%. The viability, T/C [25] was 59.5%, the viability, T/C [26] was 53.4% and the viability, T/C [27] was 52.1%. For the same compound, the viability, T/C [28] was 49.7%, the viability, T/C [29] was 53.7% and the viability, T/C [30] was 8.16%. For the same compound, the viability, T/C [31] was 34.6%, the viability, T/C [32] was 30.2% and the viability, T/C [33] was 34%. The viability, T/C [34] was 34%, the viability, T/C [35] was 28.5% and the viability, T/C [36] was 6.2%. It also gave a viability, T/C [37] of 17%, a viability, T/C [38] of 14.3% and a viability, T/C [39] of 15.9%. It also gave a viability, T/C [40] of 17%, a viability, T/C [41] of 15.1% and a viability, T/C [42] of 4.85%.

`Cc1nc(NC(=O)N2CCCC2C(N)=O)sc1-c1ccnc(C(C)(C)C(F)(F)F)c1` (configuration not stated) was tested, and the viability, T/C (compound 0.0316 µM) was 99.9% [middle of 8 runs], the viability, T/C (compound 0.1 µM) was 94.7% [middle of 8 runs] and the viability, T/C (compound 0.316 µM) was 85.8% [middle of 8 runs]. The viability, T/C (compound 1 µM) was 73.9% [middle of 8 runs], the viability, T/C (compound 3.16 µM) was 61.8% [middle of 8 runs] and the viability, T/C (compound 10 µM) was 52.6% [middle of 8 runs].

For `CC(C)NCC(C(=O)N1CCN(c2ncnc3c2C(C)CC3O)CC1)c1ccc(Cl)cc1` (configuration not stated) + Cc1nc(NC(=O)N2CCCC2C(N)=O)sc1-c1ccnc(C(C)(C)C(F)(F)F)c1, the IC50 [3] was greater than 10 µM, the IC50 [4] was greater than 10 µM and the IC50 [5] was greater than 10 µM. The IC50 [6] was greater than 10 µM, the IC50 (curve of first compound, second compound 3.16 µM) was 5.06 µM and the IC50 (curve of first compound, second compound 10 µM) was less than 0.0316 µM. It also gave a viability, T/C [19] of 82.8%, a viability, T/C [20] of 92.3% and a viability, T/C [21] of 85.9%. The viability, T/C [22] was 97.7%, the viability, T/C [23] was 85.2% and the viability, T/C [24] was 66.7%. The viability, T/C [25] was 82.4%, the viability, T/C [26] was 81% and the viability, T/C [27] was 97.9%. The viability, T/C [28] was 82.1%, the viability, T/C [29] was 82.1% and the viability, T/C [30] was 66.2%. For the same compound, the viability, T/C [31] was 76.5%, the viability, T/C [32] was 88.8% and the viability, T/C [33] was 81.7%. It also gave a viability, T/C [34] of 69.2%, a viability, T/C [35] of 78.4% and a viability, T/C [36] of 54.5%. It also gave a viability, T/C [37] of 68.7%, a viability, T/C [38] of 60.7% and a viability, T/C [39] of 67.8%. The viability, T/C [40] was 69.5%, the viability, T/C [41] was 59.5% and the viability, T/C [42] was 51%. It also gave a viability, T/C (second compound 3.16 µM, first compound 0.0316 µM) of 61%, a viability, T/C (second compound 3.16 µM, first compound 0.1 µM) of 60% and a viability, T/C (second compound 3.16 µM, first compound 0.316 µM) of 60.7%. It also gave a viability, T/C (second compound 3.16 µM, first compound 1 µM) of 59.1%, a viability, T/C (second compound 3.16 µM, first compound 3.16 µM) of 57% and a viability, T/C (second compound 3.16 µM, first compound 10 µM) of 40.1%. For the same compound, the viability, T/C (second compound 10 µM, first compound 0.0316 µM) was 45.7%, the viability, T/C (second compound 10 µM, first compound 0.1 µM) was 35.9% and the viability, T/C (second compound 10 µM, first compound 0.316 µM) was 43.5%. It also gave a viability, T/C (second compound 10 µM, first compound 1 µM) of 45.9%, a viability, T/C (second compound 10 µM, first compound 3.16 µM) of 34.3% and a viability, T/C (second compound 10 µM, first compound 10 µM) of 28.2%.

`CC1(C)CCC(CN2CCN(c3ccc(C(=O)NS(=O)(=O)c4ccc(NCC5CCOCC5)c([N+](=O)[O-])c4)c(Oc4cnc5[nH]ccc5c4)c3)CC2)=C(c2ccc(Cl)cc2)C1` + CC(Nc1ccc2c(c1)OCCn1cc(N3C(=O)OCC3C(F)F)nc1-2)C(N)=O showed an IC50 [1] of 8.46 µM, an IC50 [2] of 8.25 µM and an IC50 [3] of 6.53 µM. The IC50 [4] was 6.52 µM, the IC50 [5] was 4.81 µM and the IC50 [6] was 4.21 µM. It also gave a viability, T/C [7] of 83.7%, a viability, T/C [8] of 77.4% and a viability, T/C [9] of 95.8%. It also gave a viability, T/C [10] of 112%, a viability, T/C [11] of 93.5% and a viability, T/C [12] of 42.7%. The viability, T/C [13] was 92.3%, the viability, T/C [14] was 86.7% and the viability, T/C [15] was 87.4%. The viability, T/C [16] was 111%, the viability, T/C [17] was 94.5% and the viability, T/C [18] was 41%. It also gave a viability, T/C [19] of 95.2%, a viability, T/C [20] of 88.2% and a viability, T/C [21] of 94.7%. It also gave a viability, T/C [22] of 84.2%, a viability, T/C [23] of 90% and a viability, T/C [24] of 26.5%. It also gave a viability, T/C [25] of 80.3%, a viability, T/C [26] of 81.4% and a viability, T/C [27] of 79.1%. It also gave a viability, T/C [28] of 96.7%, a viability, T/C [29] of 86.3% and a viability, T/C [30] of 29.4%. It also gave a viability, T/C [31] of 70.3%, a viability, T/C [32] of 62.3% and a viability, T/C [33] of 61.7%. The viability, T/C [34] was 61.2%, the viability, T/C [35] was 74.6% and the viability, T/C [36] was 22%. The viability, T/C [37] was 55.5%, the viability, T/C [38] was 50.7% and the viability, T/C [39] was 59.3%. It also gave a viability, T/C [40] of 59.8%, a viability, T/C [41] of 73.3% and a viability, T/C [42] of 25.9%.

With `CNC(=O)c1ccc(N2C(=S)N(c3ccc(C#N)c(C(F)(F)F)c3)C(=O)C2(C)C)cc1F` the viability, T/C (compound 0.0316 µM) was 111% and 106% (2×) and 100%, the viability, T/C (compound 0.1 µM) was 97% [middle of 4 runs] and the viability, T/C (compound 0.316 µM) was 111% [middle of 4 runs]. The viability, T/C (compound 1 µM) was 113% [middle of 4 runs] and the IC50 (curve of compound) was greater than 10 µM.

Source: PubChem BioAssay AID1963965 (Molecular Pharmacology Branch, DTP, NCI, 2024)
